Here are results for 29 molecules from US9605005B2, “Alkynyl alcohols and methods of use” (Genentech, Inc., priority 2013, dated 2017).

pKi: −log10 of the molar value.

The target of one assay is nuclear factor-kappa B (NF-kB)-inducing kinase (NIK) (Homo sapiens (Human), UniProt Q99558). The experiment in a line: NIK enzyme inhibition assay (Transcreener ADP, NIK ADP-FP). It counts as biochemical.
Sequence of nuclear factor-kappa B (NF-kB)-inducing kinase (NIK) (Q99558 whole entry): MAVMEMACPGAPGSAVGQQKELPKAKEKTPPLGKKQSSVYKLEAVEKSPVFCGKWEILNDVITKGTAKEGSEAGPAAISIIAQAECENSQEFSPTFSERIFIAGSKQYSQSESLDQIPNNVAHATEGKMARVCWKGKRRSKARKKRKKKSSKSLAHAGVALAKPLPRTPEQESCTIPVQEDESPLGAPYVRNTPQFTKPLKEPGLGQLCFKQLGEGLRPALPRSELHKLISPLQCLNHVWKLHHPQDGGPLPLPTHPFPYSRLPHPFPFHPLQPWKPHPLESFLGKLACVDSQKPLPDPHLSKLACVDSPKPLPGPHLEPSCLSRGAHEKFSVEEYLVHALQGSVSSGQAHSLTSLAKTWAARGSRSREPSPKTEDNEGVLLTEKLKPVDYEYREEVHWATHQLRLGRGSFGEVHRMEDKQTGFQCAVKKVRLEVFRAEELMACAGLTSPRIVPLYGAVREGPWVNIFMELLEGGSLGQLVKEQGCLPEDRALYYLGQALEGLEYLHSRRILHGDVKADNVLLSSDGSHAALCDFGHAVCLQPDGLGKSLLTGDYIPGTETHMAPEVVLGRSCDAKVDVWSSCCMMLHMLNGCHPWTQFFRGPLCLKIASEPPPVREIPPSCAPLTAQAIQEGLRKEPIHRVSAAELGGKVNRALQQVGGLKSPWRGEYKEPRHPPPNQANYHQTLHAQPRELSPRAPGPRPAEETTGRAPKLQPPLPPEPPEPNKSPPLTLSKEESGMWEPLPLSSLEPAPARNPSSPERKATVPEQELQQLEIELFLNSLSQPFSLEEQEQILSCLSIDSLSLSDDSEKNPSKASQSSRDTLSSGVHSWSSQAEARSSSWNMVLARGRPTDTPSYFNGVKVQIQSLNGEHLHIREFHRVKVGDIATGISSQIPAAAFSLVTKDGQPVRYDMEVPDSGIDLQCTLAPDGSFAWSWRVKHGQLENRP
Conditions: not given
In the case of `CN1CC[C@@](O)(C#Cc2cccc(-n3nc(C(N)=O)c4cnncc43)c2)C1=O` [Compound 190, 1-[3-[2-[(3R)-3-hydroxy-1-methyl-2-oxo-pyrrolidin-3-yl]ethynyl]phenyl]pyrazolo [3,4-d]pyridazine-3-carboxamide], the pKi is 8.17.

Still in this assay, the particulars now being: purified NIK 0.5 nM, 10 μM ATP, fluorescence polarization; read-out: NIK ADP-FP (Ki μM).
For the molecule `CN1CC[C@@](O)(C#Cc2cccc(-n3nc(C(N)=O)c4c3CCN(C3COC3)C4)c2)C1=O` [Compound 33, 1-[3-[2-[(3R)-3-hydroxy-1-methyl-2-oxo-pyrrolidin-3-yl]ethynyl]phenyl]-5-(oxetan-3-yl)-6,7-dihydro-4H-pyra-zolo[4,3-c]pyridine-3-carbox-amide], the Ki was 259 nM.

As to `Cc1cc([C@](C)(O)C#Cc2ccnc(-n3nc(C(N)=O)cc3C)c2)no1` [Compound 80, 1-[4-[(3R)-3-hydroxy-3-(5-methylisoxazol-3-yl)but-1-ynyl]-2-pyridyl]-5-methyl-pyrazole-3-carboxamide], the Ki came to 84.5 nM.

As for `CN1CC[C@@](O)(C#Cc2cccc(-c3nc(C(N)=O)c4n3CCCC4)c2)C1=O` [Compound 84, 3-[3-[2-[(3R)-3-hydroxy-1-methyl-2-oxo-pyrrolidin-3-yl]ethynyl]phenyl]-5,6,7,8-tetra-hydroimidazo[1,5-a]pyri-dine-1-carboxamide], the inhibition constant (Ki) was determined as 33.9 nM.

For `CN1CC[C@@](O)(C#Cc2ccnc(-n3nc(C(N)=O)c4c3CC(C)(C)[C@@H](OCc3ccccc3)C4)c2)C1=O` [Compound 7, (5S)-5-benzyloxy-1-[4-[2-[(3R)-3-hydroxy-1-methyl-2-oxo-pyrrolidin-3-yl]ethynyl]-2-pyridyl]-6,6-dimethyl-5,7-dihydro-4H-indazole-3-carboxamide], the Ki turned out to be 45.5 nM.

In the case of `C[C@@](O)(C#Cc1cccc(-n2nc(C(N)=O)c3ccccc32)c1)c1ncccn1` [Compound 28, 1-[3-[(3R)-3-hydroxy-3-pyri-midin-2-yl-but-1-ynyl]phe-nyl]indazole-3-carboxamide], the Ki is 35.2 nM.

Take `CN1CC[C@@](O)(C#Cc2ccnc(-n3nc(C(N)=O)c4c3C[C@]3(C)C[C@@H]3C4)c2)C1=O` [Compound 5, (4aR,5aS)-1-[4-[2-[(3R)-3-hydroxy-1-methyl-2-oxo-pyrroli-din-3-yl]ethynyl]-2-pyri-dyl]-5a-methyl-4,4a,5,6-tetrahydrocyclopropa[f]inda-zole-3-carboxamide]: the Ki is 13.9 nM.

With `CN1CC[C@@](O)(C#Cc2ccnc(-n3nc(C(N)=O)c4c3CCC[C@@H]4NC(=O)C3CC3)c2)C1=O` [Compound 17, (4S)-4-(cyclopropanecarbo-nylamino)-1-[4-[2-[(3R)-3-hydroxy-1-methyl-2-oxo-pyrrolidin-3-yl]ethynyl]-2-pyridyl]-4,5,6,7-tetrahydroin-dazole-3-carboxamide], the Ki turned out to be 146 nM.

Turning to `CN(C)C(=O)c1ccc2c(c1)c(C(N)=O)nn2-c1cccc(C#C[C@]2(O)CCN(C)C2=O)c1` [Compound 184, 1-[3-[2-[(3R)-3-hydroxy-1-methyl-2-oxo-pyrrolidin-3-yl]ethynyl]phenyl]-N5, N5-dimethyl-indazole-3,5-dicarboxamide], the inhibition constant (Ki) was determined as 103 nM.

Turning to `CN1CC[C@@](O)(C#Cc2cccc(-n3nc(C(N)=O)c4c3CCC(=O)N4)c2)C1=O` [Compound 180, 1-[3-[2-[(3R)-3-hydroxy-1-methyl-2-oxo-pyrrolidin-3-yl]ethynyl]phenyl]-5-oxo-6,7-dihydro-4H-pyrazolo [4,3-b]pyridine-3-carboxamide], the Ki turned out to be 0.35 nM.

`NC(=O)c1nn(-c2cccc(C#C[C@]3(O)CCOC3=O)c2)c2ccccc12` [Compound 171, 1-[3-[2-[(3R)-3-hydroxy-2-oxo-tetrahydrofuran-3-yl]eth-ynyl]phenyl]indazole-3-carbox-amide]: the Ki was 8.12 nM.

As for `CN1CC[C@](O)(C#Cc2cccc(-n3nc(C(N)=O)c4c3C(=O)NC4)c2)C1=O` [Compound 143, 1-[3-[2-[(3S)-3-hydroxy-1-methyl-2-oxo-pyrrolidin-3-yl]ethynyl]phenyl]-6-oxo-4,5-dihydropyrrolo[3,4-c]pyra-zole-3-carboxamide], the Ki worked out at 1.54 nM.

Consider `C[C@H](O)c1ccc2c(c1)c(C(N)=O)nn2-c1cccc(C#C[C@]2(O)CCN(C)C2=O)c1` [Compound 45, 5-[(1S)-1-hydroxyethyl]-1-[3-[2-[(3R)-3-hydroxy-1-meth-yl-2-oxo-pyrrolidin-3-yl]ethynyl]phenyl]indazole-3-carboxamide], for which the Ki was found to be 2.33 nM.

As for `CNc1nc2c(s1)c(C(N)=O)nn2-c1cccc(C#C[C@]2(O)CCN(C)C2=O)c1` [Compound 196, 1-[3-[2-[(3R)-3-hydroxy-1-methyl-2-oxo-pyrrolidin-3-yl]ethynyl]phenyl]-5-(methylamino)pyrazolo[3,4-d] thiazole-3-carboxamide], the inhibition constant Ki is 0.05 nM.

With `CN1CC[C@@](O)(C#Cc2ccnc(-n3nc(C(N)=O)c4c3C[C@@H](O)CC4)c2)C1=O` [Compound 62, (6S)-6-hydroxy-1-[4-[2-[(3R)-3-hydroxy-1-methyl-2-oxo-pyrrolidin-3-yl]ethynyl]-2-pyridyl]-4,5,6,7-tetrahydro-indazole-3-carboxamide], the Ki came to 5.47 nM.

As for `CN1CC[C@@](O)(C#Cc2cccc(-n3nc(C(N)=O)c4c3CCN(CC(C)(C)O)C4)c2)C1=O` [Compound 40, 1-[3-[2-[(3R)-3-hydroxy-1-methyl-2-oxo-pyrrolidin-3-yl]ethynyl]phenyl]-5-(2-hy-droxy-2-methyl-propyl)-6,7-dihydro-4H-pyrazolo[4,3-c]pyridine-3-carboxamide], the Ki came out at 71 nM.

Turning to `CN1CC[C@@](O)(C#Cc2cccc(-n3nc(C(N)=O)c4c3CCC[C@@H]4n3cccn3)c2)C1=O` [Compound 38, (4S)-1-[3-[2-[(3R)-3-hydroxy-1-methyl-2-oxo-pyrrolidin-3-yl]ethynyl]phenyl]-4-pyrazol-1-yl-4,5,6,7-tetrahydro-indazole-3-carboxamide], the Ki turned out to be 10.1 nM.

With `CN1CC[C@@](O)(C#Cc2cccc(-n3nc(C(N)=O)c4c3CCN(C(=O)C3CC3)C4)c2)C1=O` [Compound 20, 5-(cyclopropanecarbonyl)-1-[3-[2-[(3R)-3-hydroxy-1-methyl-2-oxo-pyrrolidin-3-yl]ethynyl]phenyl]-6,7-dihydro-4H-pyrazolo[4,3-c]pyri-dine-3-carboxamide], the Ki worked out at 4.89 nM.

Consider `CN(Cc1ccc2c(c1)c(C(N)=O)nn2-c1cc(C#C[C@]2(O)CCN(C)C2=O)ccn1)C(=O)CCCN` [Compound 141, 5-[[4-aminobutanoyl(meth-yl)amino]methyl]-1-[4-[2-[(3R)-3-hydroxy-1-methyl-2-oxo-pyrrolidin-3-yl]ethynyl]-2-pyridyl]indazole-3-carbox-amide], for which the Ki worked out at 3.27 nM.

Take `Cc1sc(-c2cc(C#C[C@]3(O)CCN(C)C3=O)ccc2F)nc1C(N)=O` [Compound 197, 2-[2-fluoro-5-[2-[(3R)-3-hydroxy-1-methyl-2-oxo-pyrrolidin-3-yl]ethynyl]phenyl]-5-methyl-thiazole-4-carboxamide]: the Ki is 0.053 nM.

Take `CN1CC[C@@](O)(C#Cc2cccc(-n3nc(C(N)=O)c4cnc(N5CC[C@@H](O)C5)cc43)c2)C1=O` [Compound 138, 1-[3-[2-[(3R)-3-hydroxy-1-methyl-2-oxo-pyrrolidin-3-yl]ethynyl]phenyl]-6-[(3R)-3-hydroxypyrrolidin-1-yl]pyra-zolo[4,3-c]pyridine-3-carbox-amide]: the Ki amounted to 0.19 nM.

With `CN1CC[C@@](O)(C#Cc2ccnc(-n3nc(C(N)=O)c4c3C3CC(C4)C3)c2)C1=O` [Compound 58, (R)-1-(4-((3-hydroxy-1-meth-yl-2-oxopyrrolidin-3-yl)eth-ynyl)pyridin-2-yl)-4,5,6,7-tetrahydro-1H-5,7-methano-indazole-3-carboxamide], the Ki was determined as 18.7 nM.

Regarding `CN1CC[C@@](O)(C#Cc2cccc(-c3nc(C(N)=O)c(N)s3)c2)C1=O` [Compound 195, 5-amino-2-[3-[2-[(3R)-3-hydroxy-1-methyl-2-oxo-pyrrolidin-3-yl]ethynyl]phenyl]thiazole-4-carboxamide], the Ki amounted to 0.05 nM.

`CN1CC[C@@](O)(C#Cc2cccc(-n3nc(C(N)=O)c4c3CCN([S@@+](C)[O-])C4)c2)C1=O` [Compound 123, 1-[3-[2-[(3R)-3-hydroxy-1-methyl-2-oxo-pyrrolidin-3-yl]ethynyl]phenyl]-5-[(R)-methylsulfinyl]-6,7-dihydro-4H-pyrazolo[4,3-c]pyridine-3-carboxamide]: the Ki amounted to 18 nM.

Take `C[C@H]1Cc2c(C(N)=O)nn(-c3cccc(C#C[C@]4(O)CCN(C)C4=O)c3)c2C1` [Compound 193, (5S)-1-[3-[2-[(3R)-3-hydroxy-1-methyl-2-oxo-pyrrolidin-3-yl]ethynyl]phenyl]-5-methyl-5,6-dihydro-4H-cyclopenta[c]pyrazole-3-carboxamide]: the Ki worked out at 0.1 nM.

As to `CN1C[C@H](O)[C@](O)(C#Cc2cccc(-n3nc(C(N)=O)c4ccccc43)c2)C1=O` [Compound 128, 1-[3-[2-[(3R,4S)-3,4-dihydroxy-1-methyl-2-oxo-pyrroli-din-3-yl]ethynyl]phenyl]inda-zole-3-carboxamide], the Ki came out at 1250 nM.

Consider `CN1CC[C@@](O)(C#Cc2cccc(-c3nc(C(N)=O)n4c3NCC4)c2)C1=O` [Compound 87, 7-[3-[2-[(3R)-3-hydroxy-1-methyl-2-oxo-pyrrolidin-3-yl]ethynyl]phenyl]-2,3-dihy-dro-1H-imidazo[1,5-a]imida-zole-5-carboxamide], for which the inhibitory constant (Ki) is 20.4 nM.

On to `CN1CC[C@@](O)(C#Cc2cccc(-c3nc(C(N)=O)c4n3CCC4)c2)C1=O` [Compound 192, 3-[3-[2-[(3R)-3-hydroxy-1-methyl-2-oxo-pyrrolidin-3-yl]ethynyl]phenyl]-6,7-dihydro-5H-pyrrolo[1,2-c] imidazole-1-carboxamide], for which the Ki is 28.1 nM.

On to `CN1CC[C@@](O)(C#Cc2ccnc(-n3nc(C(N)=O)c4c3CCC[C@H]4NC(=O)C3CC3)c2)C1=O` [Compound 15, (4R)-4-(cyclopropanecarbo-nylamino)-1-[4-[2-[(3R)-3-hydroxy-1-methyl-2-oxo-pyrrolidin-3-yl]ethynyl]-2-pyridyl]-4,5,6,7-tetrahydroinda-zole-3-carboxamide], for which the Ki amounted to 382 nM.
